From US6299865A, “Reduction of hair growth” (priority 2000, dated 2001)

Assays:
[1] = system: tissue nonspecific form of alkaline phosphatase; details: several species; cited from earlier work
[2] = system: Human hair follicles; assay: Human hair follicle growth assay; type: cell-based; details: 0.1 mM, control 0.77 ± .09
Protocol: Human hair follicles in growth phase (anagen) were isolated from face-lift tissue under a dissecting scope using a scalpel and watchmakers forceps. The skin was sliced into thin strips exposing 2-3 rows of follicles that could readily be dissected. Follicles were placed into 0.5 mL Williams E medium (Life Technologies, Gaithersburg, Md.) supplemented with […] L-glutamine, 10 μg/mL insulin, 10 ng/mL hydrocortisone, 100 units penicillin, 0.1 mg/mL streptomycin and 0.25 μg/mL amphotericin B. The follicles were incubated in 24 well plates (1 follicle/well) at 37° C. in an atmosphere of 5% CO2 and 95% air. Hair follicles were video recorded in the 24-well plates under the dissecting scope under a power of 20×. Typically, initial recordings were made on day 0 (day follicles were placed in culture) or day 1, and again on days 7 or 8. Hair follicle lengths were assessed using an image analysis software system (Computer Eyes and NIH Image).

[3] = system: tissue-specific form of alkaline phosphatase; details: stereoselective: only the L-form is active; uncompetitive; cited from earlier work

For N=C(N)NCCCC[C@H](N)C(=O)O [L-homoarginine], the “Inhibition of tissue nonspecific form of alkaline phosphatase” value [1] is given as “acts as an inhibitor”.
In the case of [Na+].[Na+].[Na+].[O]=[V]([O-])([O-])[O-] [Sodium Orthovanadate, sodium orthovanadate], the “Hair Follicle Length Increase (Day 6-Day 0)” value [2] is reported as 0.32 ± .06 mm.
For CC(C)C[C@H](N)C(=O)O [leucine], the “Inhibition of tissue-specific form of alkaline phosphatase” value [3] is listed as “inhibit”.
For N[C@@H](Cc1ccccc1)C(=O)O [phenylalanine], the “Inhibition of tissue-specific form of alkaline phosphatase” value [3] is given as “inhibit”.
In the case of N[C@@H](Cc1c[nH]c2ccccc12)C(=O)O [tryptophan], the “Inhibition of tissue-specific form of alkaline phosphatase” value [3] is listed as “inhibit”.
